Tests used:
BMRPA1 cells [1] = test: Cell growth at reduced serum (crystal violet assay); type: cell-based, rat; details: NNK-transformed vs untreated BMRPA1 cells, 12 days
Procedure: To measure cell growth at 10% FBS, cells were seeded at 5×10^4 cell/60 mm TCD containing 4 ml of cRPMI-10% FBS. Every 3 d, triplicate TCDs were removed for each cell line under study, the cells were released with trypsin-EDTA, and counted in the presence of trypan blue. To assess the effect of cRPMI containing reduced FBS concentrations on cell growth, equal numbers (1.5×10^4 cell/ml/well) of NNK-treated and untreated BMRPA1 cells were seeded in triplicate wells of 24 well TCDs. The cells were allowed to adhere overnight in cRPMI 10% FBS, washed with PBS, and reincubated with cRPMI containing the indicated % FBS. Cell growth was evaluated by a modification of the crystal violet relative proliferation assay (Serrano, 1997). Briefly, the cells were washed with PBS, fixed in 10% buffered formalin followed by rinsing with distilled water. The cells were then stained with 0.1% Crystal Violet for 30 min at room temperature (RT), washed with dH2O, and dried. The cell-associated dye was extracted with 1 ml 10% acetic acid, aliquots were diluted 1:2 with dH2O, and transferred to 96-well microtiter plates for OD600nm measurements. The cell growth was calculated relative to the OD600nm values read at 24 h. […]

BMRPA1 cells [2] = test: Anchorage independent colony formation on agar; type: cell-based, rat; details: NNK-treated BMRPA1 cells; days after seeding 9; 30 sequential 1 mm^2 fields, average of 5 TCFs ± SEM
Procedure: Aliquots of 4 ml of 0.5% agar-medium mixture (agar was autoclaved in 64 mL H2O, cooled in a water bath to 50° C., and added to 15 mL 5× cRPMI, 19 mL FBS and 1 mL P/S) were poured into 25 cm^2 TCFs and allowed to harden overnight at 4° C. Prior to plating the cells, the flasks were placed in the COT-Air incubator for up to 5 h at 37° C. to facilitate equilibration of pH and temperature. Cells were collected by Trypsin-EDTA, 0.1 mL, of cell suspension (40000/mL cells in cRPMI) was dispersed carefully over the agar surface of each flask and the cultures were returned to the 37° C. incubator with […]-5% CO2. After 24 h, the agar-coated TCFs were inverted to allow drainage of excess medium. The cultures were examined microscopically after 9 d and 14 d for growth of colonies using a Zeiss inverted microscope.
The ability of the cloned BMRPA.1NNK and untreated BMRPA1 cells to grow on agar was examined by dispersing cells at low density onto soft agar (see Example 1).

BMRPA1 cells [3] = test: BrdU incorporation (FACS); type: cell-based, rat; details: NNK-treated vs untransformed BMRPA1 cells
Procedure: Cells (5×10^4) were plated in 60 mm TCD, and allowed to grow in cRPMI-10% FBS. […] Briefly, 10^6 trypsin-EDTA released cells were washed twice in PBS-1% BSA, fixed in 70% ethanol for 30 min, and resuspended in RNAase A (0.1 mg/mL) for 30 min at 37° C. After washing the cells, their DNA was denatured with 2N HCl/Triton X-100 for 30 min, and neutralized with 0.1 M Na2B4O7.10H2O, pH 8.5. The cells were then washed in PBS-1% BSA with 0.5% Tween 20, and resuspended in 50 uL of 0.5% Tween in PBS-1% BSA solution with 20 uL of FITC-AntiBrdU antibody. After 45 min at 37° C., the cells were washed, resuspended in 1 mL of Na Citrate buffer containing Propidium Iodide (0.005 mg/mL) and RNAase A (0.1 mg/mL). Fluorescent activated cell sorting or flow cytometry (FACS) analysis to detect the incorporated BrdU and PI staining was performed by using a FACScan analyzer from Becton Dickinson Co. equipped with an Argon ion laser using excitation wavelength of 488 nm. Data analysis was performed using the LYSYS II program.
The measurement of BrdU incorporation in RNAase treated cells is routinely used to assess DNA synthesis during the S phase of proliferating cells (Alberts B., Johnson, A., Lewis, J., Raff, M., Roberts, K., Walter, P., 2002, Molecular Biology of the Cell. Garland Science, Taylor and Francis, 4th ed., NY). […]

Nu/Nu mice = test: Tumorigenicity in Nu/Nu mice; type: in vivo, mouse; details: 10^7 cloned BMRPA1.NNK cells injected s.c.
Procedure: Nu/Nu mice (7 wks of age) were obtained from Harlan laboratories (Indianapolis, Ind.). The cells used for injection were released by Trypsin-EDTA, washed in cRPMI, and resuspended in PBS at 10^8 cells/mL. Each mouse tested was injected subcutaneously (s.c.) with 0.1 ml of this cell suspension. The animals were inspected for tumor development daily during the first 4 weeks, and thereafter at weekly intervals. Small pieces of the tumors (1-2 mm.) were cut from the core of the tumors and placed in 4% pafaformaldehyde overnight at 4 C. The tissue was then washed in PBS, and placed in 30% sucrose for another 24 h. Sections of tumor tissue frozen in Lipshaw embedding matrix (Pittsburgh, Pa.) were made with a Jung cryostat (Leica), placed on gelatin coated slides, and stored at −20 C. H&E staining was done according to standard procedures.
Cells growing on agar often have the ability to grow as tumors in Nu/Nu mice (Shin et al., 1975; Colburn et al., 1978). The ability of cells to grow in Nu/Nu mice as tumors is believed to be a strong indication of malignant transformation (Chung, 1986). Consequently, 10^7 cloned, live BMRPA1.NNK cells were injected subcutaneously (s.c.) in the posterior flank region of Nu/Nu mice. Another group of mice was injected s.c. under similar conditions with untransformed BMRPA1 cells. […]

BMRPA1 cells [4] = test: NNK exposure: effects on BMRPA1 morphology; type: cell-based, rat; details: for cytotoxic changes: one 16 hour exposure
Procedure: All preparations of the carcinogen-containing media were made in a separate laboratory within a NCI-designed and certified chemical hood using prescribed protective measures. 4-(N-nitrosmethylamino)-1-(3-pyridyl)-1-butanone (NNK, American Health Foundation, N.Y.) was prepared as a stock solution of 10 mg NNK in PBS and added to FBS-free cRPMI to make final concentrations of 100, 50, 10, 5, and 1 μg/mil. BMRPA1 cells at passage 36 (p36) were seeded at 10^5/60 mm TCDs and allowed to grow for 6 d. At this time the medium was removed, and the cells were washed 2× with prewarmed (37° C.), FBS-free cRPMI before they were treated with FBS-free cRPMI (4 ml/TCD) containing the different concentrations of NNK. A 6th set of TCDs containing BMRPA1 cells was incubated in FBS-free cRPMI without NNK and was used as controls. The eight TCDs used for each of the six sets of different culture conditions were returned to the 37° C. and 95% air-5% CO2 incubator. After 16 h, the NNK-containing medium was removed from all TCDs and the cells were washed 3× with PBS followed by addition of fresh cRPMI-10% FBS (4 ml/TCD), and the incubation continued. Control cultures without NNK were processed in parallel. The cells were fed every 2 d by replacing ½ of the spent medium with fresh cRPMI-10% FBS. At full confluency the cells were collected from all TCDs, the cells in each group were pooled, and passaged at 2×10^4 into fresh TCDs.
With the purpose of determining whether such changes are induced by a single exposure to NNK and at relatively small NNK concentrations, BMRPA1 cells were exposed for one 16 hour period to serum free medium containing 100, 50, 10, 5, and 1 μg NNK/mL. […] Furthermore, the gradual pace of these changes at 1 μg/mL allows a passage by passage study of both early and late events in the process of NNK-induced transformation. Thus, the results presented below were obtained with BMRPA1 cells exposed once for 16 h to 1 μg NNK/mL FBS-free medium.

## CN(CCCC(=O)c1cccnc1)N=O [NNK, 4-(methyl-nitrosamino)-1-(3-pyridyl)-1-butanone]
BMRPA1 cells [1]
  cell growth at 1%, 5%, and 10% FBS: selective growth advantage
BMRPA1 cells [2]
  # of colonies* formed <50 cells: 14
  # of colonies* formed >50 cells: 15.8 ± 2.5
  # of colonies* formed Total: 17.3 ± 5.2
BMRPA1 cells [3]
  proliferative changes (BrdU incorporation): permanent hyperproliferative changes
Nu/Nu mice
  # of mice with metastasis/# of mice tested: 1/6
  # of mice with tumor/# of mice tested: 3/6
BMRPA1 cells [4]; 1 μg/ml, slower rate, over several weeks
  phenotypical changes (neoplastic transformation): phenotypical changes characteristic of neoplastic transformation
BMRPA1 cells [4]; 5, and 1 μg NNK/mL
  cytotoxic changes: considerably less
BMRPA1 cells [4]; 100, 50, 10 μg NNK/ml, within a week
  phenotypical changes (neoplastic transformation): phenotypical changes indicative of neoplastic transformation
BMRPA1 cells [4]; larger concentrations (100, 50, 10 μg NNK/mL), serum free medium
  cytotoxic changes: cylotoxic changes
